Read-outs that look alike come from different tables or passages of the source.
Target: T1, HIF-PHD2 (Homo sapiens, UniProt Q9GZT9)
T1 construct: FLAG-tagged full length PHD2 expressed in and purified from baculovirus-infected Sf9 cells; FLAG; made in house; host or cells: baculovirus-infected Sf9 cells
Assay: Assay for HIF-PHD2 Catalytic Activity (PHD2 Binding Activity)
Assay type: biochemical

[1] = read-out: PHD2 Binding Activity IC50

T1 sequence (Q9GZT9 whole entry): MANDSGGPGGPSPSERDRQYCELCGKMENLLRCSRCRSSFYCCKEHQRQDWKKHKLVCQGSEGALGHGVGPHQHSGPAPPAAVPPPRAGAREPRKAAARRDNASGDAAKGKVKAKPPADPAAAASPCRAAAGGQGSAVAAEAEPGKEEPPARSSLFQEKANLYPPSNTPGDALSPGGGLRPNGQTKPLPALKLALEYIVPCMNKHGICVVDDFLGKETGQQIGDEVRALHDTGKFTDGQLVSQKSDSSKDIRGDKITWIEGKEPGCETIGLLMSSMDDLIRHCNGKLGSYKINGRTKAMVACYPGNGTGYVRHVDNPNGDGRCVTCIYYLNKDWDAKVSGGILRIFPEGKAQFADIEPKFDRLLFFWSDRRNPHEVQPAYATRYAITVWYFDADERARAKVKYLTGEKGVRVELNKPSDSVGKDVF

SMILES	IC50	IC50 [1]
Cc1cccnc1CN1CCC2(CC1)C(=O)N(c1ccc(-c3ccccc3)cc1)C(=O)N2c1cnc(O)cn1 [Compound 1-45, 3-biphenyl-4-yl-1-(5-hydroxypyrazin-2-yl)-8-[(3-methylpyridin-2-yl)methyl]-1,3,8-triazaspiro[4.5]decane-2,4-dione]	20 to 50 nM	
CCCCOC(=O)c1[nH]cnc1CN1CCC2(CC1)C(=O)N(c1ccc(-c3ccccc3)cc1)C(=O)N2c1nccc(O)n1 [Compound 1-46, Butyl 4-{[3-biphenyl-4-yl-1-(4-hydroxypyrimidin-2-yl)-2,4-dioxo-1,3,8-triazaspiro[4.5]dec-8-yl]methyl}-1-H-imidazole-5-carboxylate]	20 to 50 nM	
CCCCOC(=O)c1[nH]cnc1CN1CCC2(CC1)C(=O)N(c1ccc(-c3ccccc3)cc1)C(=O)N2c1nccc(OC)n1 [Compound 1-47, Butyl 4-{[3-biphenyl-4-yl-1-(4-methoxypyrimidin-2-yl)-2,4-dioxo-1,3,8-triazaspiro[4.5]dec-8-yl]methyl}-1-H-imidazole-5-carboxylate]	20 to 50 nM	
CCCCOC(=O)c1[nH]cnc1CN1CCC2(CC1)C(=O)N(c1ccc(-c3ccccc3)cc1)C(=O)N2c1cc(OC)ncn1 [Compound 1-48, Butyl 4-{[3-biphenyl-4-yl-1-(6-methoxypyrimidin-4-yl)-2,4-dioxo-1,3,8-triazaspiro[4.5]dec-8-yl]methyl}-1-H-imidazole-5-carboxylate]	0.5 to 20 nM	
COc1ccnc(N2C(=O)N(c3ccc(-c4ccccc4)cc3)C(=O)C23CCN(Cc2nc[nH]c2C)CC3)n1 [Compound 1-49, 3-biphenyl-4-yl-1-(4-methoxypyrimidin-2-yl)-8-[(5-methyl-1-H-imidazol-4-yl)methyl]-1,3,8-triazaspiro[4.5]decane-2,4-dione]	0.5 to 20 nM	
O=C(O)c1[nH]cnc1CN1CCC2(CC1)C(=O)N(c1ccc(-c3ccccc3)cc1)C(=O)N2c1nccc(O)n1 [Compound 1-50]	20 to 50 nM	
O=C(O)c1[nH]cnc1CN1CCC2(CC1)NC(=O)N(c1ccc(-c3ccccc3)cc1)C2=O [Compound 1-51, 4-[(3-biphenyl-4-yl-2,4-dioxo-1,3,8-triazaspiro[4.5]dec-8-yl)methyl]-1-H-imidazole-5-carboxylic acid]		0.5 to 20 nM
O=C(O)c1[nH]cnc1CN1CCC2(CC1)C(=O)N(c1ccc(-c3ccccc3)cc1)C(=O)N2c1cc(O)ncn1 [Compound 1-52, 4-{[3-biphenyl-4-yl-1-(6-hydroxypyrimidin-4-yl)-2,4-dioxo-1,3,8-triazaspiro[4.5]dec-8-yl]methyl}-1-H-imidazole-5-carboxylic acid]	0.5 to 20 nM	
Cc1[nH]cnc1CN1CCC2(CC1)C(=O)N(c1ccc(-c3ccccc3)cc1)C(=O)N2c1cc(O)ncn1 [Compound 1-53, 3-biphenyl-4-yl-1-(6-hydroxypyrimidin-4-yl)-8-[(5-methyl-1-H-imidazol-4-yl)methyl]-1,3,8-triazaspiro[4.5]decane-2,4-dione]	0.5 to 20 nM	
Cc1cccnc1CN1CCC2(CC1)C(=O)N(c1ccc(-c3ccccc3)cc1)C(=O)N2c1nc(O)cc(O)n1 [Compound 1-55, 3-biphenyl-4-yl-1-(4,6-dihydroxypyrimidin-2-yl)-8-[(3-methylpyridin-2-yl)methyl]-1,3,8-triazaspiro[4.5]decane-2,4-dione]	0.5 to 20 nM	
COc1cc(O)nc(N2C(=O)N(c3ccc(-c4ccccc4)cc3)C(=O)C23CCN(Cc2ncccc2C)CC3)n1 [Compound 1-56, 3-biphenyl-4-yl-1-(4-hydroxy-6-methoxypyrimidin-2-yl)-8-[(3-methylpyridin-2-yl)methyl]-1,3,8-triazaspiro[4.5]decane-2,4-dione]	0.5 to 20 nM	
COc1cc(OC)nc(N2C(=O)N(c3ccc(-c4ccccc4)cc3)C(=O)C23CCN(Cc2ncccc2C)CC3)n1 [Compound 1-57, 3-biphenyl-4-yl-1-(4,6-dimethoxypyrimidin-2-yl)-8-[(3-methylpyridin-2-yl)methyl]-1,3,8-triazaspiro[4.5]decane-2,4-dione]	0.5 to 20 nM	
Cc1cccnc1CN1CCC2(CC1)C(=O)N(c1ccc(-c3ccccc3)cc1)C(=O)N2c1ccnc(O)c1 [Compound 1-58, 3-biphenyl-4-yl-1-(2-hydroxypyridin-4-yl)-8-[(3-methylpyridin-2-yl)methyl]-1,3,8-triazaspiro[4.5]decane-2,4-dione]	0.5 to 20 nM	
Cc1cccnc1CN1CCC2(CC1)C(=O)N(c1ccc(-c3ccccc3)cc1)C(=O)N2c1nccc(C(=O)O)n1 [Compound 1-59, 2-{3-biphenyl-4-yl-8-[(3-methylpyridin-2-yl)methyl]-2,4-dioxo-1,3,8-triazaspiro[4.5]dec-1-yl}pyrimidine-4-carboxylic acid]	0.5 to 20 nM	
COC(=O)c1ccc(-c2ccc(N3C(=O)N(c4ncccn4)C4(CCN(Cc5ncccc5C)CC4)C3=O)cc2)cc1 [Compound 1-61, Methyl 4′-{8-[(3-methylpyridin-2-yl)methyl]-2,4-dioxo-1-pyrimidin-2-yl-1,3,8-triazaspiro[4.5]dec-3-yl}biphenyl-4-carboxylate]	0.5 to 20 nM	
O=C(O)c1[nH]cnc1CN1CCC2(CC1)C(=O)N(c1ccc(-c3ccccc3)cc1)C(=O)N2c1ncccn1 [Compound 1-64, 4-[(3-biphenyl-4-yl-2,4-dioxo-1-pyrimidin-2-yl-1,3,8-triazaspiro[4.5]dec-8-yl)methyl]-1-H-imidazole-5-carboxylic acid]	0.5 to 20 nM	

SMILES	IC50	IC50 [1]
Cc1cccnc1CN1CCC2(CC1)C(=O)N(c1ccc(-c3cccc(C(=O)O)c3)cc1)C(=O)N2c1ncccn1 [Compound 1-66, 4′-{8-[(3-methylpyridin-2-yl)methyl]-2,4-dioxo-1-pyrimidin-2-yl-1,3,8-triazaspiro[4.5]dec-3-yl}biphenyl-3-carboxylic acid]	0.5 to 20 nM	
Cc1cccnc1CN1CCC2(CC1)C(=O)N(c1ccc(-c3ccc(CC(=O)O)cc3)cc1)C(=O)N2c1ncccn1 [Compound 1-67, (4′-{8-[(3-methylpyridin-2-yl)methyl]-2,4-dioxo-1-pyrimidin-2-yl-1,3,8-triazaspiro[4.5]dec-3-yl}biphenyl-4-yl)acetic acid]	20 to 50 nM	
Cc1cccnc1CN1CCC2(CC1)C(=O)N(c1ccc(-c3ccccc3)cc1)C(=O)N2c1ccncn1 [Compound 1-68, 3-biphenyl-4-yl-8-[(3-methylpyridin-2-yl)methyl]-1-pyrimidin-4-yl-1,3,8-triazaspiro[4.5]decane-2,4-dione]	0.5 to 20 nM	
Cc1cccnc1CN1CCC2(CC1)C(=O)N(c1ccc(C3CC3C(=O)O)cc1)C(=O)N2c1ncccn1 (centres unmarked) [Compound 1-69, 2-(4-{8-[(3-methylpyridin-2-yl)methyl]-2,4-dioxo-1-pyrimidin-2-yl-1,3,8-triazaspiro[4.5]dec-3-yl}phenyl)cyclopropanecarboxylic acid]	0.5 to 20 nM	
COc1ccnc(N2C(=O)N(c3ccc(-c4ccccc4)cc3)C(=O)C23CCN(Cc2nnn[nH]2)CC3)n1 [Compound 1.39, 3-biphenyl-4-yl-1-(4-methoxypyrimidin-2-yl)-8-(1H-tetrazol-5-ylmethyl)-1,3,8-triazaspiro[4.5]decane-2,4-dione]	> 50 nM	
Cc1cccnc1CN1CCC2(CC1)C(=O)N(c1ccc(-c3ccccc3)cc1)C(=O)N2C [Compound 2-1, 3-biphenyl-4-yl-1-methyl-8-[(3-methylpyridin-2-yl)methyl]-1,3,8-triazaspiro[4.5]decane-2,4-dione]		0.5 to 20 nM
CC(C)(C)OC(=O)CN1CCC2(CC1)C(=O)N(c1ccc(-c3ccccc3)cc1)C(=O)N2c1cnccn1 [Compound 2-2, tert-butyl (3-biphenyl-4-yl-2,4-dioxo-1-pyrazin-2-yl-1,3,8-triazaspiro[4.5]dec-8-yl)acetate]	> 50 nM	
O=C(O)CN1CCC2(CC1)C(=O)N(c1ccc(-c3ccccc3)cc1)C(=O)N2c1cnccn1 [Compound 2-3, (3-biphenyl-4-yl-2,4-dioxo-1-pyrazin-2-yl-1,3,8-triazaspiro[4.5]dec-8-yl)acetic acid]	0.5 to 20 nM	
O=C(O)CN1CCC2(CC1)C(=O)N(c1ccc(-c3ccccc3)cc1)C(=O)N2c1cncnc1 [Compound 2-4, (3-biphenyl-4-yl-2,4-dioxo-1-pyrimidin-5-yl-1,3,8-triazaspiro[4.5]dec-8-yl)acetic acid]	20 to 50 nM	
O=C(O)CN1CCC2(CC1)C(=O)N(c1ccc(-c3ccccc3)cc1)C(=O)N2c1ncccn1 [Compound 2-5, (3-biphenyl-4-yl-2,4-dioxo-1-pyrimidin-2-yl-1,3,8-triazaspiro[4.5]dec-8-yl)acetic acid]	0.5 to 20 nM	
COc1ccnc(N2C(=O)N(c3ccc(-c4ccccc4)cc3)C(=O)C23CCN(CC(=O)O)CC3)n1 [Compound 2-6, [3-biphenyl-4-yl-1-(4-methoxypyrimidin-2-yl)-2,4-dioxo-1,3,8-triazaspiro[4.5]dec-8-yl]acetic acid]	0.5 to 20 nM	
Cc1cccnc1CN1CCC2(CC1)C(=O)N(c1ccc(-c3ccccc3)cc1)C(=O)N2CC(=O)O [Compound 2-7]		0.5 to 20 nM
CCOC(=O)C1CN(Cc2ncccc2C)CCC12C(=O)N(c1ccc(-c3ccccc3)cc1)C(=O)N2c1nccc(OC)n1 (centres unmarked) [Compound 3-2, ethyl 3-biphenyl-4-yl-1-(4-methoxypyrimidin-2-yl)-8-[(3-methylpyridin-2-yl)methyl]-2,4-dioxo-1,3,8-triazaspiro[4.5]decane-6-carboxylate]	0.5 to 20 nM	
CCOC(=O)C1CN(Cc2ncccc2C)CCC12C(=O)N(c1ccc(-c3ccccc3)cc1)C(=O)N2c1nccc(O)n1 (centres unmarked) [Compound 3-3, ethyl 3-biphenyl-4-yl-1-(4-hydroxypyrimidin-2-yl)-8-[(3-methylpyridin-2-yl)methyl]-2,4-dioxo-1,3,8-triazaspiro[4.5]decane-6-carboxylate]	0.5 to 20 nM	
Cc1cccnc1CN1CCC2(C(=O)N(c3ccc(-c4ccccc4)cc3)C(=O)N2c2nccc(O)n2)C(C(=O)O)C1 (centres unmarked) [Compound 3-4, 3-biphenyl-4-yl-1-(4-hydroxypyrimidin-2-yl)-8-[(3-methylpyridin-2-yl)methyl]-2,4-dioxo-1,3,8-triazaspiro[4.5]decane-6-carboxylic acid]	0.5 to 20 nM	
CCOC(=O)C1CN(Cc2ncccc2C)CCC12C(=O)N(c1ccc(-c3ccccc3)cc1)C(=O)N2c1cc(O)ncn1 (centres unmarked) [Compound 3-6, Ethyl 3-biphenyl-4-yl-1-(6-hydroxypyrimidin-4-yl)-8-[(3-methylpyridin-2-yl)methyl]-2,4-dioxo-1,3,8-triazaspiro[4.5]decane-6-carboxylate]	0.5 to 20 nM	
